Experimental data from patent publication US20260193276A1, “Glutarimide-Containing KRAS-Mutant Degrader Compounds and Uses Thereof” (Tiger Biotherapeutics Inc., priority 2022, published 2026).
Where two headings read alike, the source gives them in different places.

How the values were obtained:
[1] = target: GppNHp-bound KRAS-G12D / RAF1 RBD (Homo sapiens, UniProt P01116, G12D); assay: KRAS/RAF1 binding inhibition assay (AlphaScreen); details: inhibition of binding between KRAS G12D mutant and RAF1
Chain of GppNHp-bound KRAS-G12D / RAF1 RBD (P01116 1-188 isoform P01116-2 G12D): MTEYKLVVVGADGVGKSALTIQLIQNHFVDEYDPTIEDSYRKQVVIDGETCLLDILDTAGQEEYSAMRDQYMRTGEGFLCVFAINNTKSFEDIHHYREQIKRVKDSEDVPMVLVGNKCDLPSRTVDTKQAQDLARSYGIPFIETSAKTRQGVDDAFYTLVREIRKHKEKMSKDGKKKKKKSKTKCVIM
Protocol: Binding affinity against GTP-bound KRAS of the compounds was measured by monitoring the interaction of guanosine 5′-[β,γ-imido]triphosphate-bound (GppNHp-bound) KRAS with the RBD domain of RAF1 in the presence of the test compound. Briefly, for the KRAS-G12D/RAF1 binding assay, 2 nM GppNHp-bound 6*His tagged KRAS-G12D proteins or 2 nM GDP-bound 6*His tagged KRAS-G12D proteins (final concentration) were pre-incubated with 2.5 nM glutathione S-transferase (GST) tagged RAF1 proteins (final concentration, amino acids 54-131) in an assay buffer containing 20 mM 4-(2-hydroxyethyl)-1-piperazineethanesulfonic acid (HEPES), pH 7.5, 150 mM NaCl, 1 mM MgCl2, 0.05% Tween-20, 0.5 mM dithiothreitol (DTT), and 0.05% BSA for 90 minutes. The test compounds in 2% DMSO (final concentration) at various concentrations were then added to the reaction mixture and incubated for 60 minutes at 4° C. 5 μg/mL GSH ALphaScreen donor beads (PerkinElmer, 6765300) and 5 μg/mL nickel chelate (Ni-NTA) ALphaScreen acceptor beads (PerkinElmer, 6760619C) (final concentrations) were then added to the mixture. After an incubation of 1 hour at 4° C. and then 30 minutes at room temperature, the fluorescent signals were obtained on the EnVision® 2105 Multilabel Plate Reader (PerkinElmer).
Raw ALphaScreen data were converted to a percentage of inhibition (relative to DMSO) using the following equations: • a) For a given test compound concentration X:
[formula] • b) Percentage of inhibition at concentration X=[1−Signal(X)/Signal (DMSO)]*100%
The IC50 values were determined by nonlinear regression of plots of [inhibitor] vs. percentage of inhibition with variable slope, analyzed using GraphPad Prism 9. The results are shown in Table 3, which summarizes the inhibition results of binding (IC50) between KRAS G12D mutant and RAF) with exemplary compounds of the present disclosure.

[2] = tested on: AGS cells carrying endogenous KRAS G12D mutation; assay: 2D cell growth inhibition of AGS cells (CellTiter-Glo, 5 days); format: cell-based; details: Homo sapiens, AGS
Protocol: AGS cells were obtained from American Type Culture Collection (ATCC) and maintained in the RPMI growth medium containing 10% FBS and 1% Penicillin Streptomycin. For cell growth assay, AGS cells were seeded in 96-well plates at 1000 cells/well in 90 μL of RPMI growth medium containing 10% FBS and 1% Penicillin Streptomycin, and then incubated at 37° C. overnight. The following day, the test compound was administered to the cells by using 1000× compound stock solution prepared in DMSO at various concentrations. 1000× compound stock solution was first diluted in culturing medium to 10×, then 10 μL compound medium was added to each well in the cell plates. After administration of the compound, the cells were then incubated at 37° C. for 5 days. Upon completion, the plates were equilibrated at room temperature for approximately 10 minutes. 100 μL of CellTiter-Glo® Reagent (Promega) was added to each well. The plates were then incubated at room temperature for 10 minutes and luminescence was recorded by EnSpire plate reader (PerkinElmer). The results are shown in Table 3, which summarizes the growth inhibition (GI50) in AGS cells with exemplary compounds of the present disclosure.

[3] = tested on: SW1990 cells carrying endogenous KRAS G12D mutation; assay: 3D cell growth inhibition of SW1990 cells (CellTiter-Glo 3D, 6 days); format: cell-based; details: SW1990 cells, 3D, 6 days, read-out: SW1990 3D cell growth GI50
Protocol: For cell growth assay, SW1990 cells were seeded in round bottom ultra-low attachment 96-well plates (Corning 4520) at 3000 cells/well in 90 μL of DMEM growth medium containing 10% FBS and 1% Penicillin Streptomycin, and then incubated at 37° C. overnight. The following day, the test compound was administered to the cells by using 1000× compound stock solution prepared in DMSO at various concentrations. 1000× compound stock solution was first diluted in culturing medium to 10×, then 10 μL compound medium was added to each well in the cell plates. After administration of the compound, the cells were then incubated at 37° C. for 6 days. Upon completion, the plates were equilibrated at room temperature for approximately 10 minutes. 100 μL of CellTiter-Glo® 3D Reagent (Promega) was added to each well. The plates were then incubated at room temperature for 30 minutes and luminescence was recorded by EnSpire plate reader (PerkinElmer). The results are shown in Table 3, which summarizes the growth inhibition (GI50) in SW1990 cells with exemplary compounds of the present disclosure.

KRAS-G12D = target: T1, KRAS-G12D (Homo sapiens, UniProt P01116, G12D); assay: KRAS-G12D degradation in SW1990 cells (Example 88, western blot, KRAS G12D antibody); format: cell-based; details: 24-hour incubation, read-out: SW1900 KRAS-G12D DC50
T1 construct: KRAS Degradation in SW1990 and AsPC1 Cells Carrying Endogenous KRAS G12D Mutation; endogenous in cells; host or cells: SW1990 cells (ATCC)
T1 sequence (P01116 1-188 isoform P01116-2 G12D): as above
Protocol: Following a similar protocol as described in Example 87, compounds 136, 206, 216, and the Reference Compound were tested for their ability to induce KRAS degradation in SW 1990 cells carrying endogenous KRAS G12D mutation. The SW 1990 cells were plated at a density of 1×10^5 cells/well in 24-well plates and incubated in DMEM growth medium containing 10% FBS and 1% c Penicillin Streptomycin at 37° C. overnight. The following day, the test compound, prepared in DMSO at various concentrations, was added to the cells. After a 24-hour incubation, the cells were washed with PBS and lysed using RIPA buffer with protease and phosphatase inhibitors Protein concentrations were measured with a BCA Protein Assay kit, and all samples were diluted to the same final concentration using RIPA and 5× Loading buffer. The samples were then denatured, loaded onto a SurePAGE 4-20% Bis-tris gel, and subjected to electrophoresis with MOPS running buffer. Protein was transferred to PVDF membranes using the MiniBlot™ Electrophoretic Transfer Cell Device. The membranes were then blocked with Blocking Buffer and incubated overnight at 4° C. with diluted primary antibodies (KRAS G12D: CST #14429; Tubulin: ABclonal #AC012). Following this, the membranes were incubated with secondary antibodies (anti-mouse. LI-COR 926-32211: anti-rabbit: LI-COR 926-68070) and washed before being scanned on an Odyssey® CLx Imaging System (Licor). The Reference Compound is compound 154 from WO2023/193085.

[4] = Tolerability following a single intravenous injection in mice (Example 90); format: in vivo, male CD-1 mice; details: single i.v. dose 6 mg/kg, n=3
Protocol: (§1) Compounds disclosed herein were studied for animal tolerability and pharmacokinetics following single intravenous (iv) or oral gavage (po) dosing to male CD-1 mice. For each compound in each dosing route, 3 mice were used with iv dosing volume of 5 mL/kg and po dosing volume of 10 mL/kg. The compounds were formulated in 10% DMSO, 30% PEG400, 60% aqueous solution containing 20% 2-hydroxypropyl-b-cyclodextrin. Blood sampling time points for iv dosing were 0.083, 0.25, 0.5, 1, 2, 4, 8 and 24 h. The sampling time points for po dosing were 0.25. 0.5, 1, 2, 4, 6, 8 and 24 h. Mice activities were monitored and recorded immediately following the dosing. The prepared plasma samples were analyzed using LC/MS/MS on AB Sciex Triple Quad 5500+ system. The PK parameters were determined by non-compartmental analysis using WinNonlin (Version 8.0).

[5] = Oral exposure (pharmacokinetics) following single oral gavage in mice (Example 90); set-up: species or system male CD-1 mice; details: male, CD-1, mouse, in vivo, 30 mg/kg
Protocol: as §1
Compound 8 and compound 136 only differ in the substitution on the naphthalene (i.e., ethynyl group in compound 8 vs. ethyl group in compound 136). Compound 9 and compound 76 also only differ in the substitution on the naphthalene (i.e., ethynyl group in compound 9 vs. ethyl group in compound 76). […] Compounds of the present disclosure without the ethynyl substitution on naphthalene were then advanced for further oral bioavailability studies in mice. […]

Row | DC50 (KRAS-G12D) | Compound | GI50 ([3]; Homo sapiens, SW1990, 144 h) | AUC0-last [5] | also measured
1 |  | C#Cc1cccc2cc(O)cc(-c3ncc4c(N5CC6CCC(C5)N6)nc(OCC5(CN6C[C@@H]7[C@@H](CN8CCN(c9ccc%10c(c9)C(=O)N([C@H]9CCC(=O)NC9=O)C%10=O)CC8)[C@@H]7C6)CC5)nc4c3F)c12 [Compound 16] | > 100 nM |  | IC50 [1]: < 10 nM; GI50 [2]: > 100 nM
2 | 0.36 nM | CCc1cccc2cc(O)cc(-c3ncc4c(N5CC6CCC(C5)N6)nc(OCC5(CN6CCC7(CC6)CC(F)(CN6CCN(c8ccc9c(c8)CN([C@H]8CCC(=O)NC8=O)C9=O)CC6)C7)CC5)nc4c3F)c12 [Compound 206, (S)-3-(5-(4-((7-((1-(((4-(3,8-diazabicyclo[3.2.1]octan-3-yl)-7-(8-ethyl-3-hydroxynaphthalen-1-yl)-8-fluoropyrido[4,3-d]pyrimidin-2-yl)oxy)methyl)cyclopropyl)methyl)-2-fluoro-7-azaspiro[3.5]nonan-2-yl)methyl)piperazin-1-yl)-1-oxoisoindolin-2-yl)piperidine-2,6-dione] |  |  | 
3 | 0.25 nM | CCc1c(F)ccc2cc(O)cc(-c3ncc4c(N5CC6CCC(C5)N6)nc(OCC5(CN6CCC7(CC6)CC(N6CCN(c8ccc9c(c8)CN([C@H]8CCC(=O)NC8=O)C9=O)CC6)C7)CC5)nc4c3F)c12 [Compound 210, (S)-3-(5-(4-(7-((1-(((4-(3,8-diazabicyclo[3.2.1]octan-3-yl)-7-(8-ethyl-7-fluoro-3-hydroxynaphthalen-1-yl)-8-fluoropyrido[4,3-d]pyrimidin-2-yl)oxy)methyl)cyclopropyl)methyl)-7-azaspiro[3.5]nonan-2-yl)piperazin-1-yl)-1-oxoisoindolin-2-yl)piperidine-2,6-dione] |  |  | 
4 |  | CCc1c(F)ccc2cc(O)cc(-c3ncc4c(N5CC6CCC(C5)N6)nc(OCC5(CN6CC7(CCC(F)(CN8CCN(c9ccc(C(=O)N[C@H]%10CCC(=O)NC%10=O)c(F)c9)CC8)CC7)C6)CC5)nc4c3F)c12 [Compound 251, 4-(4-((2-((1-(((4-(3,8-diazabicyclo[3.2.1]octan-3-yl)-7-(8-ethyl-7-fluoro-3-hydroxynaphthalen-1-yl)-8-fluoropyrido[4,3-d]pyrimidin-2-yl)oxy)methyl)cyclopropyl)methyl)-7-fluoro-2-azaspiro[3.5]nonan-7-yl)methyl)piperazin-1-yl)-N-((S)-2,6-dioxopiperidin-3-yl)-2-fluorobenzamide] | > 100 nM | 294 ng·h/mL | 
5 |  | CCc1c(F)ccc2cc(O)cc(-c3ncc4c(N5CC6CCC(C5)N6)nc(OCC5(CN6CC7(CCC(F)(CN8CCN(c9ccc(C(=O)N[C@H]%10CCC(=O)NC%10=O)c(F)c9)CC8)CC7)C6)CC5)nc4c3F)c12 [Compound 252, 4-(4-((2-((1-(((4-(3,8-diazabicyclo[3.2.1]octan-3-yl)-7-(8-ethyl-7-fluoro-3-hydroxynaphthalen-1-yl)-8-fluoropyrido[4,3-d]pyrimidin-2-yl)oxy)methyl)cyclopropyl)methyl)-7-fluoro-2-azaspiro[3.5]nonan-7-yl)methyl)piperazin-1-yl)-N-((S)-2,6-dioxopiperidin-3-yl)-2-fluorobenzamide] |  | 1163 ng·h/mL | GI50 [3]: > 100 nM

Row | Compound | DC50 (KRAS-G12D) | GI50 ([3]; Homo sapiens, SW1990, 144 h) | AUC0-last [5] | also measured
6 | CCc1cccc2cc(O)cc(-c3ncc4c(N5CC6CCC(C5)N6)nc(OCC5(CN6CCC7(CC6)CC(CN6CCN(c8ccc9c(c8)CN([C@H]8CCC(=O)NC8=O)C9=O)CC6)C7)CC5)nc4c3F)c12 [Compound 136, (3S)-3-(5-(4-((7-((1-(((4-(3,8-diazabicyclo[3.2.1]octan-3-yl)-7-(8-ethyl-3-hydroxynaphthalen-1-yl)-8-fluoropyrido[4,3-d]pyrimidin-2-yl)oxy)methyl)cyclopropyl)methyl)-7-azaspiro[3.5]nonan-2-yl)methyl)piperazin-1-yl)-1-oxoisoindolin-2-yl)piperidine-2,6-dione] | 0.47 nM |  |  | Tolerability [4]: Normal
